Measurements published in US9221862B2, “Erythromycin ethylsuccinate crystalline hydrate, preparation and uses thereof” (priority 2011, dated 2015).

Assay: Hygroscopicity test according to CP2005 (RH 70%, 25° C.)
Format: physicochemical
Details: sampling time 48 h, 5 grams of sample
Method: The erythromycin ethylsuccinate crystalline hydrate according to the present invention was stable during storage. The above sample was sealed in vials and subjected to accelerated stability test at 30° C. using HPLC (C18 reverse phase column, 4.6×250 mm, 5 μm), mobile phase: 10 mmol/L sodium dodecyl sulfate solution containing 0.1% triethylamine (pH adjusted to 3.4 with phosphoric acid)—acetonitrile (55:45), detection wavelength was 205 nm, and the flow rate is 1.0 ml/min, and the change of relevant substances and content was detected. […] According to CP2005, 5 grams of the sample of the present invention was, at 25° C., placed in a relative humidity of 70% in the test for hygroscopicity. It is surprising that erythromycin ethylsuccinate hydrate leads to less hygroscopic weight gain. […] In addition, the deliquescence of anhydride makes it necessary to isolate from air during processing to prevent adhesions, while the hydrate has good sliding properties, thereby improving the operability of the formulation.

Row | Substance | hygroscopic weight gain %, compared to 0 h [%]
1 | Erythromycin Ethylsuccinate 0.5 H2O Hydrate | 0.2
2 | Erythromycin Ethylsuccinate 0.25 H2O Hydrate | 0.59
